Patent publication US20200190081A1, “META SUBSTITUTED PHENYLPYRAZOLO- AND PHENYLPYRROLO- PYRIDAZINE DERIVATIVES HAVING MULTIMODAL ACTIVITY AGAINST PAIN” (ESTEVE PHARMACEUTICALS, S.A., priority 2016, published 2020)
pKi: −log10 of the molar value.

Tests used:
[1] = target: Human norepinephrine transporter (NET) (Homo sapiens, UniProt P23975); test: Binding assay to human norepinephrine transporter (NET), [3H]-Nisoxetin; settings: human NET enriched membranes, 5 nM [3H]-Nisoxetin
Method: Binding Assay to Human Norepinephrine Transporter (NET).
Human norepinephrine transporter (NET) enriched membranes (5 μg) were incubated with 5 nM of radiolabeled [3H]-Nisoxetin in assay buffer containing 50 mM Tris-HCl, 120 mM NaCl, 5 mM KCl, pH 7.4. NSB (non specific binding) was measured by adding 10 μM of desipramine. The binding of the test compound was measured at five different concentrations. After 60 min incubation at 4° C., binding reaction was terminated by filtering through Multiscreen GF/C (Millipore) presoaked in 0.5% polyethyleneimine in Vacuum Manifold Station, followed by 3 washes with ice-cold filtration buffer containing 50 mM Tris-HCl, 0.9% NaCl, pH 7.4. Filter plates were dried at 60° C. for 1 hour and 30 μl of scintillation cocktail were added to each well before radioactivity reading. Readings were performed in a Trilux 1450 Microbeta radioactive counter (Perkin Elmer).

[2] = target: Human α2δ-1 Subunit of Cav2.2 Calcium Channel (Homo sapiens, UniProt P54289); test: Human α2δ-1 subunit of Cav2.2 calcium channel assay, [3H]-Gabapentin binding; settings: human α2δ-1 enriched membranes, 15 nM [3H]-Gabapentin
Human α2δ-1 Subunit of Cav2.2 Calcium Channel, sequence (P54289 25-1103): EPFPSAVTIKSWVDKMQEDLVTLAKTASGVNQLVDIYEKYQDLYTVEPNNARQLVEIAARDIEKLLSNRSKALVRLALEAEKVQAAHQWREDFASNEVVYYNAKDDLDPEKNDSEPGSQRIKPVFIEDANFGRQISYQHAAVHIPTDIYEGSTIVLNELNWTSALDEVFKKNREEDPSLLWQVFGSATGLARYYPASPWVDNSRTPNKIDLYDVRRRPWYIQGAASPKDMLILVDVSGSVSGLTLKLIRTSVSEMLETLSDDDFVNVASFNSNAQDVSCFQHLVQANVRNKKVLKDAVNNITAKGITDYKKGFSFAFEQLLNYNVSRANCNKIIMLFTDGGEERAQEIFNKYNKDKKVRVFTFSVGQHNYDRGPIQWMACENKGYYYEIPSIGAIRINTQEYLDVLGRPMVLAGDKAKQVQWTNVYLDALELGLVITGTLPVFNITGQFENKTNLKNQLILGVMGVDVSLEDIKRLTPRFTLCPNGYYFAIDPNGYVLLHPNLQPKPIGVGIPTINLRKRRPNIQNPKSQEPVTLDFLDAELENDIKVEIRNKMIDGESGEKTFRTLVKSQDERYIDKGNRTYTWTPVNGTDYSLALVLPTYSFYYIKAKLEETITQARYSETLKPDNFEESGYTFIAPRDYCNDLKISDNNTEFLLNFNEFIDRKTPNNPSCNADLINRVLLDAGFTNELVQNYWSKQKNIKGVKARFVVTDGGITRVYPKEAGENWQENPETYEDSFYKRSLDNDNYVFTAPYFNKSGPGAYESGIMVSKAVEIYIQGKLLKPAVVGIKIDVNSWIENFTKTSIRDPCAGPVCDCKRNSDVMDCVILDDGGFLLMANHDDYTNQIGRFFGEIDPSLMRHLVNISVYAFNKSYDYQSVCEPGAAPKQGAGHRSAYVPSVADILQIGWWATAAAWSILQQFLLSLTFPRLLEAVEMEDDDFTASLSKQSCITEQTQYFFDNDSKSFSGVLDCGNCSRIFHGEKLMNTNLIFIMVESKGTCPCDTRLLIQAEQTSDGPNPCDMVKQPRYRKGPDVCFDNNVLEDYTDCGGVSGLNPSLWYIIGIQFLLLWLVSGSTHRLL
Method: Human α2δ-1 Subunit of Cav2.2 Calcium Channel Assay
Human α2δ-1 enriched membranes (2.5 μg) were incubated with 15 nM of radiolabeled [3H]-Gabapentin in assay buffer containing Hepes-KOH 10 mM, pH 7.4. NSB (non specific binding) was measured by adding 10 μM pregabalin. The binding of the test compound was measured at five different concentrations. After 60 min incubation at 27° C., binding reaction was terminated by filtering through Multiscreen GF/C (Millipore) presoaked in 0.5% polyethyleneimine in Vacuum Manifold Station, followed by 3 washes with ice-cold filtration buffer containing 50 mM Tris-HCl, pH 7.4. Filter plates were dried at 60° C. for 1 hour and 30 μl of scintillation cocktail were added to each well before radioactivity reading. Readings were performed in a Trilux 1450 Microbeta radioactive counter (Perkin Elmer).

Human norepinephrine transporter (NET), sequence (P23975 whole entry): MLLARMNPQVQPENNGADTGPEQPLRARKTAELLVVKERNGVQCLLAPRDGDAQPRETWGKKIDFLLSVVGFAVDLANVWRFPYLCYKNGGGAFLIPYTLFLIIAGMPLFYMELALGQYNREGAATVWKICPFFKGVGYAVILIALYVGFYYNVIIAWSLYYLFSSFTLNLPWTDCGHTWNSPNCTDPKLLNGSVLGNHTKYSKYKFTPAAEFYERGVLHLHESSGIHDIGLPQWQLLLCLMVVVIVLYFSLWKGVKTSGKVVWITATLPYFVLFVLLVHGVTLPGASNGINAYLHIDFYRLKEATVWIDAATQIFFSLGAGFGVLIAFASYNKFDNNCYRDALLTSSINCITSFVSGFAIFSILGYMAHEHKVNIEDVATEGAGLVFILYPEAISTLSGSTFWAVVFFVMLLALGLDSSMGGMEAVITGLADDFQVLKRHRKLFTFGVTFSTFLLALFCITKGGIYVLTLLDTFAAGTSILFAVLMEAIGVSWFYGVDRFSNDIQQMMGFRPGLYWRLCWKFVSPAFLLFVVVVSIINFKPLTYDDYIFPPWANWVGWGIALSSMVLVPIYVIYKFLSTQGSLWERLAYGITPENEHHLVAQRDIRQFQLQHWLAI

| SMILES | pKi [1] | pKi [2] |
| --- | --- | --- |
| Cc1nnc(N(C)C)c2nn(-c3cccc(OCC4CCN(CCc5ccccc5)CC4)c3)c(C)c12 [Example 53, N,N,3,4-Tetramethyl-2-(3-((1-phenethylpiperidin-4-yl)methoxy)phenyl)-2H-pyrazolo[3,4-d]pyridazin-7-amine] | 6.30 to 7.00 | 5.30 to 6.30 |
| Cc1nnc(N(C)C)c2nn(-c3cccc(OC(CCNCCF)c4ccccc4)c3)c(C)c12 (stereo not shown) [Example 54, 2-(3-(3-((2-fluoroethyl)amino)-1-phenylpropoxy)phenyl)-N,N,3,4-tetramethyl-2H-pyrazolo[3,4-d]pyridazin-7-amine] | 6.30 to 7.00 | 5.30 to 6.30 |
| Cc1nnc(N(C)C)c2nn(-c3cccc(OC(CCNCC(F)F)c4ccccc4)c3)c(C)c12 (stereo not shown) [Example 55, 2-(3-(3-((2,2-difluoroethyl)amino)-1-phenylpropoxy)phenyl)-N,N,3,4-tetramethyl-2H-pyrazolo[3,4-d]pyridazin-7-amine] | 6.00 to 6.30 | 5.30 to 6.30 |
| CNCCC(Oc1cccc(-n2nc3c(N(C)C)nnc(C)c3c2C)c1)c1cccc(C(N)=O)c1 (stereo not shown) [Example 56, 3-(1-(3-(7-(Dimethylamino)-3,4-dimethyl-2H-pyrazolo[3,4-d]pyridazin-2-yl)phenoxy)-3-(methylamino)propyl)benzamide] | 6.30 to 7.00 | 5.30 to 6.30 |
| CNCCC(Oc1cccc(-n2nc3c(N(C)C)nnc(C)c3c2C)c1)c1ccc(C(N)=O)cc1 (stereo not shown) [Example 57, 4-(1-(3-(7-(dimethylamino)-3,4-dimethyl-2H-pyrazolo[3,4-d]pyridazin-2-yl)phenoxy)-3-(methylamino)propyl)benzamide] | 6.30 to 7.00 | 5.30 to 6.30 |
| CNCC[C@H](Oc1cccc(-n2nc3c(N(C)C)nnc(C)c3c2C)c1)c1ccccc1 [Example 58, (S)-N,N,3,4-Tetramethyl-2-(3-(3-(methylamino)-1-phenylpropoxy)phenyl)-2H-pyrazolo[3,4-d]pyridazin-7-amine] | > 7.00 | 5.30 to 6.30 |
| CNCC[C@@H](Oc1cccc(-n2nc3c(N(C)C)nnc(C)c3c2C)c1)c1ccccc1 [Example 59, (R)-N,N,3,4-tetramethyl-2-(3-(3-(methylamino)-1-phenylpropoxy)phenyl)-2H-pyrazolo[3,4-d]pyridazin-7-amine] | 6.30 to 7.00 | 5.30 to 6.30 |
| CNC[C@H](Oc1cccc(-n2nc3c(N(C)C)nnc(C)c3c2C)c1)c1ccccc1 [Example 60, (R)-N,N,3,4-Tetramethyl-2-(3-(2-(methylamino)-1-phenylethoxy)phenyl)-2H-pyrazolo[3,4-d]pyridazin-7-amine] | 6.30 to 7.00 | 5.30 to 6.30 |
| CNC[C@@H](Oc1cccc(-n2nc3c(N(C)C)nnc(C)c3c2C)c1)c1ccccc1 [Example 61, (S)-N,N,3,4-tetramethyl-2-(3-(2-(methylamino)-1-phenylethoxy)phenyl)-2H-pyrazolo[3,4-d]pyridazin-7-amine] | > 7.00 | 5.30 to 6.30 |
| CNCC[C@@H](Oc1cccc(-n2nc3c(N(C)C)nnc(C)c3c2C)c1)c1ccccc1F [Example 62, (R)-2-(3-(1-(2-Fluorophenyl)-3-(methylamino)propoxy)phenyl)-N,N,3,4-tetramethyl-2H-pyrazolo[3,4-d]pyridazin-7-amine] | > 7.00 | 5.30 to 6.30 |

The next lines start with the values.

| pKi [1] | pKi [2] | SMILES |
| --- | --- | --- |
| > 7.00 | 5.30 to 6.30 | CNCC[C@H](Oc1cccc(-n2nc3c(N(C)C)nnc(C)c3c2C)c1)c1ccccc1F [Example 63, (S)-2-(3-(1-(2-fluorophenyl)-3-(methylamino)propoxy)phenyl)-N,N,3,4-tetramethyl-2H-pyrazolo[3,4-d]pyridazin-7-amine] |
| 6.30 to 7.00 | > 6.30 | CNCC[C@H](Oc1cccc(-n2nc3c(N(C)C)nnc(C)c3c2C)c1)c1cccnc1 [Example 64, (S)-N,N,3,4-tetramethyl-2-(3-(3-(methylamino)-1-(pyridin-3-yl)propoxy)phenyl)-2H-pyrazolo[3,4-d]pyridazin-7-amine] |
| 6.00 to 6.30 | 5.30 to 6.30 | CNCC[C@@H](Oc1cccc(-n2nc3c(N(C)C)nnc(C)c3c2C)c1)c1cccnc1 [Example 65, (R)-N,N,3,4-tetramethyl-2-(3-(3-(methylamino)-1-(pyridin-3-yl)propoxy)phenyl)-2H-pyrazolo[3,4-d]pyridazin-7-amine] |
| 6.00 to 6.30 | 5.30 to 6.30 | CNCCC(Oc1cccc(-n2c(C)c3c(C)nnc(C)c3c2C)c1)c1ccccc1F (stereo not shown) [Example 66, 3-(2-fluorophenyl)-N-methyl-3-(3-(1,4,5,7-tetramethyl-6H-pyrrolo[3,4-d]pyridazin-6-yl)phenoxy)propan-1-amine] |
| 6.30 to 7.00 | 5.30 to 6.30 | CNCCC(Oc1cccc(-n2c(C)c3c(C)nnc(C)c3c2C)c1)c1cccc(F)c1 (stereo not shown) [Example 67, 3-(3-fluorophenyl)-N-methyl-3-(3-(1,4,5,7-tetramethyl-6H-pyrrolo[3,4-d]pyridazin-6-yl)phenoxy)propan-1-amine] |
| 6.30 to 7.00 | ≤ 5.30 | CNCC[C@H](Oc1cccc(-n2c(C)c3c(C)nnc(C)c3c2C)c1)c1cccc(F)c1 [Example 68, (S)-3-(3-Fluorophenyl)-N-methyl-3-(3-(1,4,5,7-tetramethyl-6H-pyrrolo[3,4-d]pyridazin-6-yl)phenoxy)propan-1-amine] |
| 6.30 to 7.00 | > 6.30 | CNCC[C@@H](Oc1cccc(-n2c(C)c3c(C)nnc(C)c3c2C)c1)c1cccc(F)c1 [Example 69, (R)-3-(3-fluorophenyl)-N-methyl-3-(3-(1,4,5,7-tetramethyl-6H-pyrrolo[3,4-d]pyridazin-6-yl)phenoxy)propan-1-amine] |
